Data as given in US20240270748A1 (Merck Patent GmbH, priority 2021, published 2024).
pIC50: −log10 of the molar value.

Legend:
YAP-TEAD interaction = assay: SK-HEP-1 reporter assay (8xTEAD responsive elements driving NanoLuc luciferase); type: cell-based
Outline: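 SK-HEP-1 cells stably carrying 8×TEAD-driven NanoLuc treated in duplicate, 10-point dose from 30 μM final, 0.3% DMSO, 24 h at 37° C. Luminescence after NanoGlo lysis/substrate addition; IC50 calculated from dose response.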

NCI-H226 cells = assay: Viability assay in NCI-H226 (Yap-dependent) cells, CyQuant; type: cell-based, human; conditions: Homo sapiens, NCI-H226, 96 h, class symbols
Outline: (§1)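 Seeded cells were dosed 24 h later in duplicate (10-point, 1:3 dilutions, top 30 μM final, 0.3% DMSO) and incubated 96 h at 37 °C. Viability was read with CyQUANT DNA dye after 1 h, fluorescence bottom read. NCI-H226 in RPMI 1640 medium; SW620 YAP/TAZ CRISPR knockout in DMEM/F-12 medium.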

SW620 Yap KO cells = assay: Viability assay in SW620 Yap KO (Yap independent) cells, CyQuant; type: cell-based; conditions: Homo sapiens, SW-620, 96 h
Outline: as §1

[1] = Homo sapiens, SK-HEP1, SK-HEP-1 reporter assay, n.d. = value not detectable below threshold given in parentheses, ND = not determinable within the entire range
[2] = n.d. = value not detectable below threshold given in parentheses, ND = not determinable within the entire range
[3] = Homo sapiens, SK-HEP1, SK-HEP-1 reporter assay, class symbols
[4] = n.d. = value not detectable below threshold given in parentheses
[5] = Homo sapiens, SK-HEP1, SK-HEP-1 reporter assay, n.d. = value not detectable below threshold given in parentheses

SMILES	pIC50 (YAP-TEAD interaction; [1])	pIC50 (NCI-H226 cells)	pIC50 (SW620 Yap KO cells; [2])	pIC50 (YAP-TEAD interaction; [3])	pIC50 (SW620 Yap KO cells; [4])	pIC50 (SW620 Yap KO cells; class symbols)	pIC50 (YAP-TEAD interaction; [5])	pIC50 (YAP-TEAD interaction; SK-HEP-1 reporter assay, class symbols)
Cn1cc2c3cc(C(=O)N=S(C)(C)=O)ccc3n(-c3ccc(C(F)(F)F)cn3)c2n1 [Example C149, N-[dimethyl(oxo)-λ^6-sulfanylidene]-2-methyl-8-[5-(trifluoromethyl)pyridin-2-yl]-2H,8H-pyrazolo[3,4-b]indole-5-carboxamide]	< 6.49	7.00 to 9.00	< 4.52	–	–	–	–	–
Cc1snc2c1c1cc(C(=O)N[C@@H](CO)c3ccccn3)ccc1n2-c1ccc(C(F)(F)F)cc1 [Example C67, N-[(1R)-2-hydroxy-1-(pyridin-2-yl)ethyl]-3-methyl-8-[4-(trifluoromethyl)phenyl]-8H-[1,2]thiazolo[3,4-b]indole-5-carboxamide]	–	7.00 to 9.00	< 5.49	7.00 to 8.00	–	–	–	–
CNC(=O)c1ccc2c(c1)c1c(C)n(C)nc1n2-c1ccc(C(F)(F)F)cc1 [Example C96, N,2,3-trimethyl-8-[4-(trifluoromethyl)phenyl]-2H,8H-pyrazolo[3,4-b]indole-5-carboxamide]	–	7.00 to 9.00	< 5.49	7.00 to 8.00	–	–	–	–
C[C@H](NC(=O)c1ccc2c(c1)c1nn(C)nc1n2-c1ccc(C(F)(F)F)cc1)c1ccccn1 [Example C184, 2-methyl-N-[(1S)-1-(pyridin-2-yl)ethyl]-4-[4-(trifluoromethyl)phenyl]-2H,4H-[1,2,3]triazolo[4,5-b]indole-7-carboxamide]	–	7.00 to 9.00	–	7.00 to 8.00	< 4.52	–	–	–
CNC(=O)c1ccc2c(c1)c1cn(C)nc1n2-c1ccc(C(F)(F)F)c(F)c1 [Example C166, 8-[3-fluoro-4-(trifluoromethyl)phenyl]-N,2-dimethyl-2H,8H-pyrazolo[3,4-b]indole-5-carboxamide]	–	7.00 to 9.00	–	7.00 to 8.00	< 5.49	–	–	–
Cn1nc2c3cc(C(=O)N[C@@H](CCO)c4ccccn4)ccc3n(-c3ccc(C(F)(F)F)cc3)c2n1 (single isomer, unassigned) [Example C242]	–	7.00 to 9.00	–	7.00 to 8.00	< 5.52	–	–	–
Cn1nc2c3cc(C(=O)N=[S@@](=O)(CCO)Cc4ccccn4)ccc3n(-c3ccc(C(F)(F)F)cc3)c2n1 (single isomer, unassigned) [Example C157]	–	6.00 to 7.00	–	7.00 to 8.00	–	5.00 to 6.00	–	–
Cn1nc2c3cc(C(=O)N=[S@](C)(=O)CCCO)ccc3n(-c3ccc(C(F)(F)F)cc3)c2n1 (single isomer, unassigned) [Example C172]	–	7.00 to 9.00	–	7.00 to 8.00	< 4.52	–	–	–
Cn1cc2c3cc(NS(C)(=O)=O)ccc3n(-c3ccc(C(F)(F)F)cc3)c2n1 [Example C6, N-{2-methyl-8-[4-(trifluoromethyl)phenyl]-2H,8H-pyrazolo[3,4-b]indol-5-yl}methanesulfonamide]	–	7.00 to 9.00	< 5.02	8.00 to 9.00	–	–	–	–
Cc1snc2c1c1cc(C(=O)NCCO)ccc1n2-c1ccc(C(F)(F)F)cc1 [Example C65, N-(2-hydroxyethyl)-3-methyl-8-[4-(trifluoromethyl)phenyl]-8H-[1,2]thiazolo[3,4-b]indole-5-carboxamide]	–	7.00 to 9.00	< 5.49	7.00 to 8.00	–	–	–	–
C[C@@H](CO)C(=O)Nc1ccc2c(c1)c1cn(C)nc1n2-c1ccc(C(F)(F)F)cc1 [Example C153, (2S)-3-hydroxy-2-methyl-N-{2-methyl-8-[4-(trifluoromethyl)phenyl]-2H,8H-pyrazolo[3,4-b]indol-5-yl}propanamide]	–	7.00 to 9.00	< 4.52	7.00 to 8.00	–	–	–	–
Cn1nc2c3cc(C(=O)N=[S@](=O)(CCCO)Cc4ccncc4)ccc3n(-c3ccc(C(F)(F)F)cc3)c2n1 (single isomer, unassigned) [Example C252]	–	6.00 to 7.00	–	–	–	5.00 to 6.00	< 6.52	–
CNC(=O)c1cnc2c(c1)c1cn(C)nc1n2-c1ccc(C(F)(F)F)cc1 [Example C227, N,4-dimethyl-7-[4-(trifluoromethyl)-phenyl]-4,5,7,9-tetraazatricyclo [6.4.0.0^2,6]dodeca-1(8),2,5,9,11-pentaene-11-carboxamide]	–	7.00 to 9.00	–	7.00 to 8.00	< 4.52	–	–	–
Cn1cc2c3cc(C(=O)NCc4ccccc4)ccc3n(-c3ccc(C(F)(F)F)cc3)c2n1 [Example C56, N-benzyl-2-methyl-8-[4-(trifluoromethyl)phenyl]-2H,8H-pyrazolo[3,4-b]indole-5-carboxamide]	–	7.00 to 9.00	< 4.52	7.00 to 8.00	–	–	–	–
Cn1cc2c3cc(CO)ccc3n(-c3ccc(C(F)(F)F)cc3)c2n1 [Example C182, {2-methyl-8-[4-(trifluoromethyl)phenyl]-2H,8H-pyrazolo[3,4-b]indol-5-yl}methanol]	–	6.00 to 7.00	–	7.00 to 8.00	< 4.52	–	–	–

More lines, now with the values ahead:

pIC50 (YAP-TEAD interaction; [1])	pIC50 (NCI-H226 cells)	pIC50 (SW620 Yap KO cells; [2])	pIC50 (YAP-TEAD interaction; [3])	pIC50 (SW620 Yap KO cells; [4])	pIC50 (SW620 Yap KO cells; class symbols)	pIC50 (YAP-TEAD interaction; [5])	pIC50 (YAP-TEAD interaction; SK-HEP-1 reporter assay, class symbols)	SMILES
–	6.00 to 7.00	< 5.52	7.00 to 8.00	–	–	–	–	CNC(=O)c1ccc2c(c1)c1cn(C)nc1n2C12CC(C(F)(F)F)(C1)C2 [Example C125, N,2-dimethyl-8-[3-(trifluoromethyl)bicyclo[1.1.1]pentan-1-yl]-2H,8H-pyrazolo[3,4-b]indole-5-carboxamide]
–	7.00 to 9.00	–	7.00 to 8.00	< 5.52	–	–	–	C[C@H](NC(=O)c1ccc2c(c1)c1cn(C)nc1n2-c1ccc(C(F)(F)F)cc1)c1cccc(N)n1 (single isomer, unassigned) [Example C214]
–	7.00 to 9.00	–	7.00 to 8.00	–	5.00 to 6.00	–	–	Cn1nc2c3cc(C(=O)N[C@](C)(CO)c4ccccn4)ccc3n(-c3ccc(C(F)(F)F)cc3)c2n1 (single isomer, unassigned) [Example C187]
–	6.00 to 7.00	–	–	< 5.52	–	< 7.02	–	Cn1cc2c3cc(C(=O)N=[S@@](=O)(CCCO)Cc4cccnc4)ccc3n(-c3ccc(C(F)(F)F)cc3)c2n1 (single isomer, unassigned) [Example C199]
–	7.00 to 9.00	< 4.52	7.00 to 8.00	–	–	–	–	Cn1nc2c3cc(C(=O)NCc4ccccc4)ccc3n(-c3ccc(C(F)(F)F)cc3)c2n1 [Example C134, N-benzyl-2-methyl-4-[4-(trifluoromethyl)phenyl]-2H,4H-[1,2,3]triazolo[4,5-b]indole-7-carboxamide]
–	7.00 to 9.00	< 4.52	7.00 to 8.00	–	–	–	–	C[C@H](NC(=O)c1ccc2c(n1)c1cn(C)nc1n2-c1ccc(C(F)(F)F)cc1)c1ccccn1 [Example C119, 4-methyl-N-[(1S)-1-(pyridin-2-yl)ethyl]-7-[4-(trifluoromethyl)phenyl]-4,5,7,12-tetraazatricyclo[6.4.0.0^2,6]dodeca-1(8),2,5,9,11-pentaene-11-carboxamide]
–	7.00 to 9.00	–	7.00 to 8.00	< 4.52	–	–	–	Cn1cnc2c1c1cc(C=O)ccc1n2-c1ccc(C(F)(F)F)cc1 [Example C174, 1-methyl-4-[4-(trifluoromethyl)phenyl]-1H,4H-imidazo[4,5-b]indole-7-carbaldehyde]
–	7.00 to 9.00	< 5.49	7.00 to 8.00	–	–	–	–	Cc1snc2c1c1cc(C(=O)NC[C@@H](C)O)ccc1n2-c1ccc(C(F)(F)F)cc1 [Example C90, N-[(2R)-2-hydroxypropyl]-3-methyl-8-[4-(trifluoromethyl)phenyl]-8H-[1,2]thiazolo [3,4-b]indole-5-carboxamide]
–	7.00 to 9.00	< 5.49	7.00 to 8.00	–	–	–	–	Cc1snc2c1c1cc(C(=O)NCc3ccncn3)ccc1n2-c1ccc(C(F)(F)F)cc1 [Example C64, 3-methyl-N-[(pyrimidin-4-yl)methyl]-8-[4-(trifluoromethyl)phenyl]-8H-[1,2]thiazolo[3,4-b]indole-5-carboxamide]
–	7.00 to 9.00	–	–	< 5.52	–	< 7.02	–	Cn1cc2c3cc(C(=O)N=[S@](=O)(CCCO)Cc4ccncc4)ccc3n(-c3ccc(C(F)(F)F)cc3)c2n1 (single isomer, unassigned) [Example C236]
–	7.00 to 9.00	< 4.52	7.00 to 8.00	–	–	–	–	Cc1snc2c1c1cc(C(=O)N=S(C)(=O)CCO)ccc1n2-c1ccc(C(F)(F)F)cc1 (single isomer, unassigned) [Example C102]
–	6.00 to 7.00	–	–	< 5.52	–	< 6.52	–	Cn1nc2c3cc(C(=O)N=[S@](=O)(CCCO)Cc4cccnc4)ccc3n(-c3ccc(C(F)(F)F)cc3)c2n1 (single isomer, unassigned) [Example C202]
–	7.00 to 9.00	< 4.52	7.00 to 8.00	–	–	–	–	Cn1cc2c3cc(C(=O)N[C@@H](CCO)c4cncs4)ccc3n(-c3ccc(C(F)(F)F)cc3)c2n1 (single isomer, unassigned) [Example C162]
< 4.52	5.00 to 6.00	< 4.52	–	–	–	–	–	Cn1cc2c3cc(S(=O)(=O)NCCCO)ccc3n(-c3ccc(C(F)(F)F)cc3)c2n1 [Example C85, N-(3-hydroxypropyl)-2-methyl-8-[4-(trifluoromethyl)phenyl]-2H,8H-pyrazolo[3,4-b]indole-5-sulfonamide]
–	7.00 to 9.00	< 5.49	–	–	–	–	7.00 to 8.00	Cc1snc2c1c1cc(C(=O)N=S(C)(=O)CCCO)ccc1n2-c1ccc(C(F)(F)F)cc1 (single isomer, unassigned) [Example C104]
